Results as given in patent publication US5739121A, “Fluorocyclosaccharide drug delivery systems” (University of Alberta, priority 1993, dated 1998).

Columns and labels:
[1] = Metabolic degradation after intravenous injection of 6-F3 βCD; type: in vivo, BALB/C mouse; details: mouse, i.v. injection, over the first fifteen minutes; 15 min
Description: A Bruker AM-300 (7.05 Tesla, 282.39 Mhz) and a Bruker CXP-100 (2.35 Telsa, 94.26 Mhz, 40 cm. bore) spectrometer were used for ^19 F NMR spectroscopy. The CXP-100 spectrometer was used with a 20 mm diameter, three turn horizontal coil. The biodistribution and excretion study of Example 4 was performed on the CXP-100 spectrometer, while ^1 H, ^13 C and ^19 F NMR spectra for synthesized compounds, blood, urine and extracts of liver were obtained using the Bruker AM-300 instrument. The ^19 F NMR were acquired over a spectral width of 70.0 ppm (between +60.0 and -10.0 ppm). The number of scans varied from 2.5 k to 45 k scans depending on the size of biological samples. An aqueous solution of chromium acetate (90 μL; 0.1M) was used as a relaxation agent to enhance the S/N ratio. Exponential line broadening of 0-40 Hz was imposed on the data prior to Fourier transformation. An aqueous solution of potassium fluoride (5 μL; 0.2M) was used as an internal standard during acquisition of ^19 F NMR spectra while ^1 H and ^13 C NMR spectra were locked on deuterium. D2 O was used as a solvent for samples of blood, urine and liver extract) which appeared at δ4.68 ppm (^1 H NMR spectra) with respect to tetramethylsilane. The resolution limits for ^1 H, ^13 C and ^19 F were observed between 0.5-1.1, 2.0-3.0 and 1.3-20.0 Hz, respectively. The chemical shifts are reported in δ ppm. […]

[2] = Biodistribution of 6-F3 βCD at 15 minutes after a single intravenous dose; type: in vivo, BALB/C mouse; details: mouse
Description: A Bruker AM-300 (7.05 Tesla, 282.39 Mhz) and a Bruker CXP-100 (2.35 Telsa, 94.26 Mhz, 40 cm. bore) spectrometer were used for ^19 F NMR spectroscopy. The CXP-100 spectrometer was used with a 20 mm diameter, three turn horizontal coil. The biodistribution and excretion study of Example 4 was performed on the CXP-100 spectrometer, while ^1 H, ^13 C and ^19 F NMR spectra for synthesized compounds, blood, urine and extracts of liver were obtained using the Bruker AM-300 instrument. The ^19 F NMR were acquired over a spectral width of 70.0 ppm (between +60.0 and -10.0 ppm). The number of scans varied from 2.5 k to 45 k scans depending on the size of biological samples. An aqueous solution of chromium acetate (90 μL; 0.1M) was used as a relaxation agent to enhance the S/N ratio. Exponential line broadening of 0-40 Hz was imposed on the data prior to Fourier transformation. An aqueous solution of potassium fluoride (5 μL; 0.2M) was used as an internal standard during acquisition of ^19 F NMR spectra while ^1 H and ^13 C NMR spectra were locked on deuterium. D2 O was used as a solvent for samples of blood, urine and liver extract) which appeared at δ4.68 ppm (^1 H NMR spectra) with respect to tetramethylsilane. The resolution limits for ^1 H, ^13 C and ^19 F were observed between 0.5-1.1, 2.0-3.0 and 1.3-20.0 Hz, respectively. The chemical shifts are reported in δ ppm.
6-F3 βCD (90 mg/ml in water) was administered to a BALB/C mouse by intravenous injection through the tail vein, at a dose of 13.5 mg 6-F3 βCD per mouse. The mouse was placed in a beaker layered with filter paper to absorb the urine excreted during the experiment. 15 minutes after administration of the drug complex, blood was collected by cardiac puncture, the mouse was sacrificed by euthanasia in dry ice and the desired organs were collected by dissection. All samples were immediately frozen and held frozen until NMR studies.

O[C@@H]1[C@@H](O)[C@H]2O[C@H]3[C@H](O)[C@@H](O)[C@@H](O[C@H]4[C@H](O)[C@@H](O)[C@@H](O[C@H]5[C@H](O)[C@@H](O)[C@@H](O[C@H]6[C@H](O)[C@@H](O)[C@@H](O[C@H]7[C@H](O)[C@@H](O)[C@@H](O[C@H]8[C@H](O)[C@@H](O)[C@@H](O[C@@H]1[C@@H](COCC(F)(F)F)O2)O[C@@H]8COCC(F)(F)F)O[C@@H]7COCC(F)(F)F)O[C@@H]6COCC(F)(F)F)O[C@@H]5COCC(F)(F)F)O[C@@H]4COCC(F)(F)F)O[C@@H]3COCC(F)(F)F [6-F3 βCD, Heptakis [6.0-(2,2,2-trifluoroethyl)]-β-cyclodextrin]
metabolic degradation, share of the administered dose [1]: less than 5% | % Dose in tail ([2]; single i.v. 13.5 mg per mouse (tail vein), tail): 2.14 % Dose | % Dose in blood ([2]; single i.v. 13.5 mg per mouse, blood): 62.59 % Dose | % Dose in intestine ([2]; single i.v. 13.5 mg per mouse, intestine): 0.72 % Dose | % Dose in kidney ([2]; single i.v. 13.5 mg per mouse, kidney): 1.87 % Dose | % Dose in liver ([2]; single i.v. 13.5 mg per mouse, liver): 4.09 % Dose | % Dose in urine ([2]; single i.v. 13.5 mg per mouse, urine): 40.96 % Dose
